Laboratory results from PubChem BioAssay AID212 (DTP/NCI, 2004).
“And” between values parts separate entries of the source, which are not always exact repeats. Equal entries are not always repeated. Inconclusive results are not listed.

System: BDF1 mice, colon carcinoma 38 sc, T/C %
Experiment: NCI In Vivo Anticancer Drug Screen. Data for tumor model Colon Carcinoma 38 (subcutaneous) in B6D2F1 (BDF1) mice
Conditions: endpoint: median tumor weight (est.), higher = larger tumour
Summary of the method: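 Mice with transplanted tumors are treated with compound or vehicle. Survival or tumor size is then measured in both groups. The ratio of treated to control gives the reported figure.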

[1] = dose: 12.5 mg/kg/injection, schedule: Q07DX002 (ip), vehicle: saline
[2] = dose: 25.0 mg/kg/injection, schedule: Q07DX002 (ip), vehicle: saline
[3] = dose: 6.25 mg/kg/injection, schedule: Q07DX003 (ip), vehicle: suspension in saline
[4] = dose: 25.0 mg/kg/injection, schedule: Q07DX003 (ip), vehicle: suspension in saline
[5] = dose: 50.0 mg/kg/injection, schedule: Q07DX003 (ip), vehicle: suspension in saline
[6] = dose: 25.0 mg/kg/injection, schedule: Q07DX002 (ip), vehicle: Klucel (hydroxypropylcellulose) (HPC)
[7] = dose: 50.0 mg/kg/injection, schedule: Q07DX002 (ip), vehicle: Klucel (hydroxypropylcellulose) (HPC)
[8] = dose: 100.0 mg/kg/injection, schedule: Q07DX002 (ip), vehicle: Klucel (hydroxypropylcellulose) (HPC)
[9] = dose: 200.0 mg/kg/injection, schedule: Q07DX002 (ip), vehicle: Klucel (hydroxypropylcellulose) (HPC)
[10] = dose: 50.0 mg/kg/injection, schedule: Q07DX002 (ip), vehicle: saline
[11] = dose: 100.0 mg/kg/injection, schedule: Q07DX002 (ip), vehicle: saline
[12] = dose: 200.0 mg/kg/injection, schedule: Q07DX002 (ip), vehicle: saline
[13] = dose: 25.0 mg/kg/injection, schedule: Q07DX002 (ip), vehicle: saline with Tween-80
[14] = dose: 200.0 mg/kg/injection, schedule: Q07DX002 (ip), vehicle: saline with Tween-80

## Nc1n[n+](-c2ccc(Cl)cc2)no1
dose: 6.25 mg/kg/injection, schedule: Q07DX002 (ip), vehicle: water
  T/C: 64 % of control and 78 % of control
dose: 12.5 mg/kg/injection, schedule: Q07DX002 (ip), vehicle: water
  T/C: 85 % of control and 87 % of control
dose: 25.0 mg/kg/injection, schedule: Q07DX002 (ip), vehicle: water
  T/C: 57 % of control
dose: 50.0 mg/kg/injection, schedule: Q07DX002 (ip), vehicle: water
  T/C: 119 % of control

## CC(=O)N(C)c1ccc(Nc2cc(C)[nH]c3ccc4ncnc4c23)cc1
[1]
  T/C: 118 % of control and 104 % of control
[2]
  T/C: 74 % of control and 80 % of control

## COc1cc(C)c2c(c1C=O)Oc1c(c(C)c(O)c3c1C(O)OC3=O)OC2=O (stereo not drawn)
dose: 3.12 mg/kg/injection, schedule: Q07DX003 (ip), vehicle: suspension in saline
  T/C: 93 % of control
[3]
  T/C: 60 % of control
dose: 12.5 mg/kg/injection, schedule: Q07DX003 (ip), vehicle: suspension in saline
  T/C: 65 % of control
[4]
  T/C: 93 % of control
[5]
  T/C: 87 % of control

## CN=C(N)N/N=C(\C)c1ccc2c(c1)Cc1cc(/C(C)=N/NC(N)=NC)ccc1-2
dose: 0.75 mg/kg/injection, schedule: Q07DX002 (ip), vehicle: saline with Tween-80
  T/C: 104 % of control
dose: 3.0 mg/kg/injection, schedule: Q07DX002 (ip), vehicle: saline with Tween-80
  T/C: 115 % of control

## CC[n+]1ccc(Nc2ccc(NC(=O)c3ccc(C(=O)Nc4ccc(Nc5cc[n+](CC)c(N)n5)cc4)cc3)cc2)nc1N
dose: 6.25 mg/kg/injection, schedule: Q07DX003 (ip), vehicle: saline
  T/C: 89 % of control
[3]
  T/C: 70 % of control
dose: 12.5 mg/kg/injection, schedule: Q07DX003 (ip), vehicle: saline
  T/C: 55 % of control
dose: 25.0 mg/kg/injection, schedule: Q07DX003 (ip), vehicle: saline
  T/C: 67 % of control
[4]
  T/C: 123 % of control
dose: 50.0 mg/kg/injection, schedule: Q07DX003 (ip), vehicle: saline
  T/C: 67 % of control
[5]
  T/C: 54 % of control
dose: 100.0 mg/kg/injection, schedule: Q07DX003 (ip), vehicle: saline
  T/C: 56 % of control
dose: 100.0 mg/kg/injection, schedule: Q07DX003 (ip), vehicle: suspension in saline
  T/C: 36 % of control

## O=c1[nH]c(=O)n(C2OC(CO)C(O)C2O)cc1F (stereo not drawn)
dose: 3.12 mg/kg/injection, schedule: Q07DX002 (ip), vehicle: saline
  T/C: 121 % of control
dose: 6.25 mg/kg/injection, schedule: Q07DX002 (ip), vehicle: saline
  T/C: 106 % of control
[1]
  T/C: 64 % of control

## O=C(O)CSc1c(Cl)c(=O)oc2ccc(Cl)cc12
[6]
  T/C: 93 % of control
[7]
  T/C: 113 % of control
[8]
  T/C: 81 % of control
[9]
  T/C: 120 % of control

## O=C1NC(=O)NC(C(=O)O)N1
dose: 56.25 mg/kg/injection, schedule: Q01DX001 (ip), vehicle: DMSO
  T/C: 90 % of control
dose: 56.25 mg/kg/injection, schedule: Q07DX002 (ip), vehicle: DMSO
  T/C: 122 % of control
dose: 112.5 mg/kg/injection, schedule: Q01DX001 (ip), vehicle: DMSO
  T/C: 101 % of control
dose: 112.5 mg/kg/injection, schedule: Q07DX002 (ip), vehicle: DMSO
  T/C: 121 % of control
dose: 225.0 mg/kg/injection, schedule: Q01DX001 (ip), vehicle: DMSO
  T/C: 97 % of control
dose: 225.0 mg/kg/injection, schedule: Q07DX002 (ip), vehicle: DMSO
  T/C: 75 % of control
dose: 450.0 mg/kg/injection, schedule: Q01DX001 (ip), vehicle: DMSO
  T/C: 97 % of control
dose: 450.0 mg/kg/injection, schedule: Q07DX002 (ip), vehicle: DMSO
  T/C: 101 % of control
dose: 900.0 mg/kg/injection, schedule: Q01DX001 (ip), vehicle: DMSO
  T/C: 71 % of control
dose: 900.0 mg/kg/injection, schedule: Q07DX002 (ip), vehicle: DMSO
  T/C: 108 % of control
dose: 1800.0 mg/kg/injection, schedule: Q07DX002 (ip), vehicle: DMSO
  T/C: 112 % of control

## CCCCCCCCCCCCCCCCS(=O)CC(O)COC(=O)c1ccc(C(=O)OCC(O)CS(=O)CCCCCCCCCCCCCCCC)cc1 (stereo not drawn)
dose: 12.5 mg/kg/injection, schedule: Q07DX002 (ip), vehicle: saline + alcohol
  T/C: 111 % of control
dose: 25.0 mg/kg/injection, schedule: Q07DX002 (ip), vehicle: saline + alcohol
  T/C: 98 % of control
dose: 50.0 mg/kg/injection, schedule: Q07DX002 (ip), vehicle: saline + alcohol
  T/C: 98 % of control
dose: 100.0 mg/kg/injection, schedule: Q07DX002 (ip), vehicle: saline + alcohol
  T/C: 117 % of control
dose: 200.0 mg/kg/injection, schedule: Q07DX002 (ip), vehicle: saline + alcohol
  T/C: 76 % of control
dose: 400.0 mg/kg/injection, schedule: Q07DX002 (ip), vehicle: saline + alcohol
  T/C: 104 % of control

## N/C(=N\OC(=O)Nc1ccc(CSc2ccc(Cl)cc2)o1)c1ccccn1
[6]
  T/C: 89 % of control
[7]
  T/C: 75 % of control
[8]
  T/C: 90 % of control

## COCC1OC2OC3C(COC)OC(OC4C(COC)OC(OC5C(COC)OC(OC6C(COC)OC(OC7C(COC)OC(OC8C(COC)OC(OC1C(O)C2O)C(O)C8O)C(O)C7O)C(O)C6O)C(O)C5O)C(O)C4O)C(O)C3O (stereo not drawn) (tested in a mixture with another compound)
[6]
  T/C: 72 % of control
[7]
  T/C: 68 % of control
[8]
  T/C: 53 % of control
[9]
  T/C: 69 % of control
dose: 400.0 mg/kg/injection, schedule: Q07DX002 (ip), vehicle: Klucel (hydroxypropylcellulose) (HPC)
  T/C: 95 % of control

## CCc1nc(N)nc(N)c1-c1ccc(Cl)c(N=[N+]=[N-])c1
dose: 25.0 mg/kg/injection, schedule: Q07DX002 (ip), vehicle: distilled water + Tween-80
  T/C: 82 % of control
dose: 50.0 mg/kg/injection, schedule: Q07DX002 (ip), vehicle: distilled water + Tween-80
  T/C: 98 % of control
dose: 100.0 mg/kg/injection, schedule: Q07DX002 (ip), vehicle: distilled water + Tween-80
  T/C: 97 % of control
dose: 200.0 mg/kg/injection, schedule: Q07DX002 (ip), vehicle: distilled water + Tween-80
  T/C: 88 % of control
dose: 400.0 mg/kg/injection, schedule: Q07DX002 (ip), vehicle: distilled water + Tween-80
  T/C: 106 % of control

## CCN(CC)CCNc1ccc(C)c2sc3ccccc3c(=O)c12
[2]
  T/C: 47 % of control
[10]
  T/C: 78 % of control
dose: 50.0 mg/kg/injection, schedule: Q07DX002 (ip), vehicle: suspension in saline
  T/C: 45 % of control
[11]
  T/C: 105 % of control
dose: 100.0 mg/kg/injection, schedule: Q07DX002 (ip), vehicle: suspension in saline
  T/C: 24 % of control
[12]
  T/C: 16 % of control

## NS(=O)(=O)OCCCCCCCOS(N)(=O)=O
[13]
  T/C: 124 % of control
[14]
  T/C: 9 % of control and 16 % of control

## NC(=S)N/N=C/c1ccc(OC(=O)COc2ccc(Cl)cc2)cn1
dose: 12.5 mg/kg/injection, schedule: Q07DX002 (ip), vehicle: saline with Tween-80
  T/C: 61 % of control
[13]
  T/C: 77 % of control
dose: 50.0 mg/kg/injection, schedule: Q07DX002 (ip), vehicle: saline with Tween-80
  T/C: 119 % of control
dose: 100.0 mg/kg/injection, schedule: Q07DX002 (ip), vehicle: saline with Tween-80
  T/C: 89 % of control
[14]
  T/C: 81 % of control
dose: 400.0 mg/kg/injection, schedule: Q07DX002 (ip), vehicle: saline with Tween-80
  T/C: 70 % of control

## O=c1ncccn1[C@@H]1O[C@H](CO)[C@H](O)C1O (stereo partly drawn)
[10]
  T/C: 61 % of control and 82 % of control
[11]
  T/C: 65 % of control and 75 % of control
[12]
  T/C: 66 % of control and 84 % of control
dose: 400.0 mg/kg/injection, schedule: Q07DX002 (ip), vehicle: saline
  T/C: 62 % of control and 66 % of control
dose: 800.0 mg/kg/injection, schedule: Q07DX002 (ip), vehicle: saline
  T/C: 67 % of control and 74 % of control
